Assay results as given in article PMC6733935, “A convenient and efficient total solid-phase synthesis of DOTA-functionalized tumor-targeting peptides for PET imaging of cancer” (EJNMMI Research, 2019).
Square brackets hold non-standard residues; d marks the D form. Peptide text beside a SMILES is read from it. * marks the point of attachment. DOTA = O=C(O)CN1CCN(CC(=O)O)CCN(CC(=O)*)CCN(CC(=O)O)CC1; Cha = N[C@@H](CC1CCCCC1)C(=O)O; 4Abz = Nc1ccc(C(=O)O)cc1; Nle = CCCC[C@H](N)C(=O)O; Ahx = NCCCCCC(=O)O

Key:
[1] = biological target: T1, BN/GRP receptor-positive MCF7 human breast cancer cells (Homo sapiens, UniProt P30550); assay: Saturation binding assay on MCF7 cells; conditions: n = 3-5 experiments; for Bmax (apparent number of binding sites per cell): SD < 15%
T1 construct: BN/GRP receptor-positive MDA-MB-231, MCF7, T47D human breast cancer, and PC3 human prostate cancer lines; host or cells: MDA-MB-231, MCF7, T47D (human breast cancer), PC3 (human prostate cancer); intact cells
Experimental: (§1) The cell binding of ^68Ga-radiolabeled peptides into BN/GRP receptor-positive MDA-MB-231, MCF7, T47D human breast cancer, and PC3 human prostate cancer lines (American Type Culture Collection, Rockville, MD, USA) was performed according to the method described previously. In brief, ∼ 300,000 cells (in 300 μL in low-serum media) were incubated with various amounts of radiopeptides, ranging between 0.1 and 25 nM of peptide (prepared from the serial dilutions of HPLC-purified radiopeptides), in duplicate for 60 min at room temperature. The initial concentrations of ^68Ga-labeled peptides were determined according to a well-established HPLC technique with simultaneous detection by UV absorbance. As the amount of BN peptide in the reaction mixture was too small to be detected by UV absorption at 220 nm, the radioactive peptide chromatograms from the HPLC analysis were compared (with UV chromatograms) with those of known concentrations of the corresponding nonradioactive peptides for the mass determination. Incubation was terminated by dilution with cold saline (300 μL) and the cells were pelleted by centrifugation. The cell pellets was then rapidly washed with cold saline to remove any unbound peptide and centrifuged to collect supernatants. Radioactivity in the cell pellet and the washings was measured in a γ-counter. Non-specific binding was determined in the presence of ~ 200-fold molar excess of unlabeled BN peptide. Specific binding is calculated by subtracting the non-specifically bound radioactivity from that of the total binding. The dissociation constant (Kd) was calculated using a plot of cell bound activity versus the concentration of the radioligand using GraphPad Prism software (GraphPad Software Inc., San Diego, CA, USA).

MDA-MB-231 tumors = assay: in vivo; type: in vivo, nude mice; conditions: for Uptake in Tumor: nude mice with MDA-MB-231 tumors, mean ± SD, n = 3-5
Experimental: BN/GRP receptor-positive MDA-MB-231 and PC3 cell lines (American Type Culture Collection, Rockville, USA) were grown as monolayers at 37 °C in a humidified atmosphere containing RPMI-1640 culture media with 10% fetal bovine serum (FBS) in tissue culture flasks. Twenty-four hours prior to conducting the tumor implantation, the media was replaced with RPMI-1640/10% FBS. The cells were grown to 80-90% confluency and harvested by trypsinization. After centrifugation, about 50 million cells were suspended in 1 mL media for implantation into mice. To prepare cells for inoculation, MDA-MB-231 or PC3 cancer cells with media were centrifuged, the media decanted, and the cell pellet was mixed with phosphate-buffered saline (PBS) to reach a concentration of approximately 5 million cells per 100 μL PBS. Human MDA-MB-231 breast cancer xenografts female mouse models were used for in vivo tumor-targeting experiments. For the implantation of tumor xenografts, approximately five million MDA-MB-231 cells in suspension of 100 μL sterile PBS were injected subcutaneously into the left thigh of each mouse. Tumors were allowed to grow for 4-6 weeks by which tumors had reached weights of 200-300 mg. After sufficient growth of tumors, animals were injected with 20-30 μCi of the radiotracers and the animals were sacrificed at specified time points. The uptake of ^68Ga-radiolabeled peptides in the tumors and other major body organs was calculated by γ-counting as described above.

[2] = biological target: T2, BN/GRP receptor-positive T47D human breast cancer cells (Homo sapiens, UniProt P30550); assay: Saturation binding assay on T47D cells; conditions: n = 3-5 experiments; for Bmax (apparent number of binding sites per cell): SD < 15%
T2 construct: BN/GRP receptor-positive MDA-MB-231, MCF7, T47D human breast cancer, and PC3 human prostate cancer lines; host or cells: MDA-MB-231, MCF7, T47D (human breast cancer), PC3 (human prostate cancer); intact cells
Experimental: as §1

[3] = Radio-HPLC retention time as reflection of lipophilicity; type: physicochemical; conditions: chromatographic, econosphere C18 (10 μm, 250 × 4.6 mm), 0.1% TFA water/acetonitrile, 5 to 95% B over 30 min, 1.1 mL/min; radio detection; used as reflection of lipophilicity
Experimental: The HPLC analysis and purification of the peptides were performed on a Shimadzu HPLC system using econosphere C18 reversed-phase column (10 μm, 250 × 4.6 mm). For all HPLC experiments, a gradient system of 0.1% (v/v) TFA in water (solvent A) and 0.1% (v/v) TFA in acetonitrile (solvent B) at a flow rate of 1.1 mL/min was used. The HPLC gradient began with a solvent composition of 95% A and 5% B from 0 to 2.5 min followed by a linear gradient of 95% A and 5% B to 5% A and 95% B over 30 min. The gradient remained at this position for 3 min before switching back to 95% A and 5% B for another 7 min. The major peak isolated and the acetonitrile was then slowly evaporated under a stream of nitrogen gas. Radiochemical purity was estimated by evaluating radioactivity peaks eluted for each ^68Ga-labeled peptide from the HPLC column and calculating the area under the peak (ROI). The main peak of each radiopeptide was isolated and reconstituted in sterile saline for in vitro and in vivo experiments. Radiolabeling of DOTA-coupled BN peptides with ^68Ga was accomplished simply by mixing ~ 20 μg BN peptide with sodium acetate buffer and ^68GaCl3 followed by heating to complete the labeling reaction. By this facile method, a high and reproducible radiolabeling of peptides with ^68Ga was achieved (up to 95%), with a specific radioactivity of greater than 250 Ci/mmol. […] A radiolabeling efficiency of greater than 90% was obtained in all cases, and it ranged between 90 and 95%. […] RP-HPLC retention times of the major peaks, ranging from 18.3 to 20.3 min, reflected slightly variable lipophilicity of these ^68Ga-complexes (Table 1).

[4] = ~300,000 cells, 0.1-25 nM radiopeptide, 60 min, room temperature, mean ± SD
[5] = female, nude, mouse, in vivo, 1 h

Structure (SMILES)	Bmax (apparent number of binding sites per cell) [1]	Uptake in Tumor (MDA-MB-231 tumors; 1 h p.i.) [% ID/g]	Uptake in Tumor (MDA-MB-231 tumors; 2 h p.i.) [% ID/g]	Bmax (apparent number of binding sites per cell) [2]	Radio-HPLC tR [3] [min]	Kd [1, 4] [nM]	washout from the tumors over 2 h (MDA-MB-231 tumors; MDA-MB-231 tumors, nude mice, 1 h vs 2 h p.i.) [%]	Uptake in Liver (MDA-MB-231 tumors; [5]) [% ID/g]	Uptake in Lungs (MDA-MB-231 tumors; [5]) [% ID/g]	Uptake in Liver (MDA-MB-231 tumors; female, nude, mouse, in vivo, 2 h) [% ID/g]	Kd [2, 4] [nM]
CCCC[C@H](NC(=O)[C@H](Cc1c[nH]cn1)NC(=O)[C@H](CC1CCCCC1)NC(=O)[C@@H](NC(=O)[C@H](C)NC(=O)[C@H](Cc1c[nH]c2ccccc12)NC(=O)[C@H](CCC(N)=O)NC(=O)[C@H](CS)NC(=O)CNC(=O)CNC(=O)c1ccc(NC(=O)CN2CCN(CC(=O)O)CCN(CC(=O)O)CCN(CC(=O)O)CC2)cc1)C(C)C)C(=O)N[C@@H](CCSC)C(N)=O [^68Ga-DOTA-Abz-BN Cyclen, metal not drawn] ({DOTA-4Abz}-GGCQWAV[Cha]H[Nle]M-NH2)	5.12 × 10^5 sites/cell	1.84 ± 0.40	1.30 ± 0.37	1.17 × 10^5 sites/cell	19.2						
CCCC[C@H](NC(=O)[C@H](Cc1c[nH]cn1)NC(=O)[C@H](CC1CCCCC1)NC(=O)[C@@H](NC(=O)[C@H](C)NC(=O)[C@H](Cc1c[nH]c2ccccc12)NC(=O)[C@H](CCC(N)=O)NC(=O)[C@H](CS)NC(=O)CNC(=O)CNC(=O)CCCCCNC(=O)CN1CCN(CC(=O)O)CCN(CC(=O)O)CCN(CC(=O)O)CC1)C(C)C)C(=O)N[C@@H](CCSC)C(N)=O [^68Ga-DOTA-Ahx-BN Cyclen, metal not drawn] ({DOTA-Ahx}-GGCQWAV[Cha]H[Nle]M-NH2)	6.90 × 10^5 sites/cell	2.32 ± 0.25	1.65 ± 0.19	4.75 × 10^5 sites/cell	18.3	9.8 ± 1.64	28	1.02 ± 0.16	0.55 ± 0.10	0.91 ± 0.10	15.3 ± 3.42
